Patent EP0256258A2, “Salts of methoxyphenyl-dimethylaminomethyl-cyclohexanol, medicaments containing these and process for their preparation” (Grünenthal GmbH, priority 1986, dated 1988)
≈ marks a conversion by molar mass, not a printed value. Structures can show the parent of a compound that is named as a salt.

Columns and labels:
[1] = Dissolution rate of finely powdered substance under USP XXI conditions (apparatus 2) in artificial intestinal juice; details: pH 7
physchem = details: water

Row | SMILES | gelöst / in Lösung gegangen nach 2 Minuten [1] [%] | solubility (physchem) [mg/mL] | solubility (Solubility in water) [mg/mL]
1 | COc1cccc([C@@]2(O)CCCC[C@@H]2CN(C)C)c1 (racemic) [I-Hydrochlorid, 1e-(m-Methoxyphenyl)-2e-dimethylaminomethyl-cyclohexan-1-(a)-ol] | > 97 | 298 | 
2 | O=C(O)Cc1ccccc1Nc1c(Cl)cccc1Cl [II-Natriumsalz, 2-(2ʹ,6ʹ-Dichloranilino)-phenylessigsäure] |  |  | ~30 (≈ 101 mM)
